Data on 38 test systems can be found in the supplement of paper PMC11962398.

Compound in test [1]: T1, C[C@H]1CNCCN1c1nccc(-c2noc3c2CCC[C@@]32CCCc3sc(N)c(C#N)c32)n1 [BI-2493]
The following applies: 5 days. The protocol: (§1)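 PRISM pooled barcoded cancer cell line viability screen (Broad Institute) with BI-2493 at 8 doses in threefold dilutions from 0.00457 to 10 µmol/L, 5-day treatment; curves fitted per cell line. IC50 is undefined (placeholder) for resistant lines. AUC is capped at 1, and sensitivity is reported as 1 − AUC.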

Compound in test [2]: T1, BI-2493
Put plainly: 1 - AUC of viability dose-response curve (sensitivity) (fraction); higher = more sensitive. The note with it: 5 days. As for the experimental part:
as §1

Regarding MESSA_SOFT_TISSUE, the “IC50 of cell viability” value in test [1] is 3.73 µM. For the same test system, the “1 - AUC of viability dose-response curve” value in test [2] came out at 0.17.

PA1_OVARY: the “IC50 of cell viability” value in test [1] amounted to 1.45 µM. In addition, the “1 - AUC of viability dose-response curve” value in test [2] was determined as 0.176.

SG231_BILIARY_TRACT: the “IC50 of cell viability” value in test [1] was 2.09 µM. Moreover, the “1 - AUC of viability dose-response curve” value in test [2] amounted to 0.286.

As to GCIY_STOMACH, the “IC50 of cell viability” value in test [1] is greater than 10 µM. Further, the “1 - AUC of viability dose-response curve” value in test [2] worked out at 0.00163.

Turning to SW1990_PANCREAS, the “IC50 of cell viability” value in test [1] is 0.926 µM. Moreover, the “1 - AUC of viability dose-response curve” value in test [2] was found to be 0.324.

For the test system LI7_LIVER, in test [1], the “IC50 of cell viability” value is 1.52 µM. For the same test system, the “1 - AUC of viability dose-response curve” value in test [2] amounted to 0.213.

In the case of “TALL1_HAEMATOPOIETIC_AND_LYMPHOID_TISSUE”, in test [1], the “IC50 of cell viability” value stood at 6.69 µM. Besides, the “1 - AUC of viability dose-response curve” value in test [2] amounted to 0.0755.

For the test system KNS42_CENTRAL_NERVOUS_SYSTEM, the “IC50 of cell viability” value in test [1] was 6.04 µM. Besides, the “1 - AUC of viability dose-response curve” value in test [2] was 0.0979.

JHH5_LIVER: the “IC50 of cell viability” value in test [1] was found to be 0.387 µM. Further, the “1 - AUC of viability dose-response curve” value in test [2] stood at 0.297.

For PC3_PROSTATE, the “IC50 of cell viability” value in test [1] was greater than 10 µM. The “1 - AUC of viability dose-response curve” value in test [2] came out at 0.0397.

In the case of NCIH1563_LUNG, in test [1], the “IC50 of cell viability” value was found to be 9.88 µM. Moreover, the “1 - AUC of viability dose-response curve” value in test [2] was found to be 0.00763.

On to BT12_SOFT_TISSUE, for which the “IC50 of cell viability” value in test [1] was 5.51 µM. For the same test system, the “1 - AUC of viability dose-response curve” value in test [2] was 0.17.

LPS141_SOFT_TISSUE: the “IC50 of cell viability” value in test [1] was greater than 10 µM. In addition, the “1 - AUC of viability dose-response curve” value in test [2] stood at 0.0281.

As for OSC20_UPPER_AERODIGESTIVE_TRACT, the “IC50 of cell viability” value in test [1] came out at 9.09 µM. Besides, the “1 - AUC of viability dose-response curve” value in test [2] came out at 0.165.

For the test system ICC12_BILIARY_TRACT, in test [1], the “IC50 of cell viability” value stood at 4.21 µM. Further, the “1 - AUC of viability dose-response curve” value in test [2] was found to be 0.0946.

Regarding 5637_URINARY_TRACT, the “IC50 of cell viability” value in test [1] was 5.2 µM. Moreover, the “1 - AUC of viability dose-response curve” value in test [2] stood at 0.225.

With SNU685_ENDOMETRIUM, the “IC50 of cell viability” value in test [1] is 9.5 µM. The “1 - AUC of viability dose-response curve” value in test [2] came to 0.0102.

On to MDAMB436_BREAST, for which the “IC50 of cell viability” value in test [1] is greater than 10 µM. For the same test system, the “1 - AUC of viability dose-response curve” value in test [2] was 0.0282.

Consider PATU8988T_PANCREAS, for which the “IC50 of cell viability” value in test [1] is 4.5 µM. For the same test system, in test [2], the “1 - AUC of viability dose-response curve” value was 0.0812.

Regarding KMRC1_KIDNEY, the “IC50 of cell viability” value in test [1] is 8.1 µM. The “1 - AUC of viability dose-response curve” value in test [2] stood at 0.0333.

Take HCC515_LUNG: in test [1], the “IC50 of cell viability” value worked out at 5.55 µM. Moreover, the “1 - AUC of viability dose-response curve” value in test [2] stood at 0.103.

Turning to “JEKO1_HAEMATOPOIETIC_AND_LYMPHOID_TISSUE”, the “IC50 of cell viability” value in test [1] worked out at 5.06 µM. For the same test system, in test [2], the “1 - AUC of viability dose-response curve” value is 0.0886.

As for HCA1_CERVIX, the “IC50 of cell viability” value in test [1] came out at 4.58 µM. In addition, the “1 - AUC of viability dose-response curve” value in test [2] was 0.132.

As to ICC137_BILIARY_TRACT, the “IC50 of cell viability” value in test [1] is 7.76 µM. Moreover, in test [2], the “1 - AUC of viability dose-response curve” value was determined as 0.116.

As for “MOLT13_HAEMATOPOIETIC_AND_LYMPHOID_TISSUE”, the “IC50 of cell viability” value in test [1] was found to be 5.21 µM. In test [2], the “1 - AUC of viability dose-response curve” value was 0.13.

For the test system KKU100_BILIARY_TRACT, the “IC50 of cell viability” value in test [1] turned out to be 2.61 µM. Besides, the “1 - AUC of viability dose-response curve” value in test [2] worked out at 0.182.

As for HCC1438_LUNG, the “IC50 of cell viability” value in test [1] was greater than 10 µM. For the same test system, the “1 - AUC of viability dose-response curve” value in test [2] is less than 0.

Take HCC1143_BREAST: in test [1], the “IC50 of cell viability” value was found to be 9.86 µM. For the same test system, the “1 - AUC of viability dose-response curve” value in test [2] was 0.106.

In the case of “OCILY132_HAEMATOPOIETIC_AND_LYMPHOID_TISSUE”, the “IC50 of cell viability” value in test [1] is 7.21 µM. For the same test system, in test [2], the “1 - AUC of viability dose-response curve” value amounted to 0.0816.

On to ANGMCSS_CENTRAL_NERVOUS_SYSTEM, for which, in test [1], the “IC50 of cell viability” value is greater than 10 µM. Also, in test [2], the “1 - AUC of viability dose-response curve” value amounted to 0.0225.

Take PFSK1_CENTRAL_NERVOUS_SYSTEM: the “IC50 of cell viability” value in test [1] was greater than 10 µM. Moreover, the “1 - AUC of viability dose-response curve” value in test [2] came out at 0.063.

As for RD_SOFT_TISSUE, in test [1], the “IC50 of cell viability” value came to 9.09 µM. For the same test system, in test [2], the “1 - AUC of viability dose-response curve” value turned out to be 0.0771.

In the case of “KMS21BM_HAEMATOPOIETIC_AND_LYMPHOID_TISSUE”, in test [1], the “IC50 of cell viability” value turned out to be 9.51 µM. Further, in test [2], the “1 - AUC of viability dose-response curve” value is 0.0119.

For CHL1_SKIN, the “IC50 of cell viability” value in test [1] came out at 4.96 µM. Also, in test [2], the “1 - AUC of viability dose-response curve” value amounted to 0.14.

Take CAL29_URINARY_TRACT: in test [1], the “IC50 of cell viability” value was 2.5 µM. For the same test system, the “1 - AUC of viability dose-response curve” value in test [2] came to 0.264.

As to MCF7_BREAST, in test [1], the “IC50 of cell viability” value was found to be 8.66 µM. The “1 - AUC of viability dose-response curve” value in test [2] amounted to 0.0329.

For IPC298_SKIN, in test [1], the “IC50 of cell viability” value turned out to be 4.47 µM. In addition, in test [2], the “1 - AUC of viability dose-response curve” value is 0.0978.

On to HKGZCC_BILIARY_TRACT, for which the “IC50 of cell viability” value in test [1] worked out at 1.41 µM. For the same test system, in test [2], the “1 - AUC of viability dose-response curve” value came to 0.281.
